Experimental data published in paper PMC8307404, “Crystal Structure-Guided Design of Bisubstrate Inhibitors and Photoluminescent Probes for Protein Kinases of the PIM Family” (Molecules, 2021).
Where two headings read alike, the source gives them in different places. Square brackets hold non-standard residues; d marks the D form. Peptide text beside a SMILES is read from it. * marks the point of attachment. X3 = O=C(CCCCCNCc1nc2c(sc3cc(Br)cnc32)c(=O)[nH]1)*

Key:
panel of 140 PKs = experiment: Kinase selectivity profiling, panel metrics; assay type: biochemical, human; conditions: 1 µM compound; kinases other than PIM family
Method: (§1) Kinase selectivity profiling was performed using the commercial service provided by the MRC PPU International Centre for Kinase Profiling (Dundee, UK) using a radiometric filter-binding assay. Kinases used for analysis were of human origin. The ATP concentration applied for inhibition measurements was at or below the ATP KM value of the particular PK. ARC-3125 and ARC-3126 were screened against 139 PKs, whereas compounds 1, 2, and 8 were screened against 140 PKs. The final total concentration of inhibitors in the selectivity panel was 1 µM. Residual activities were expressed as the percentage of retained activity compared to the control without inhibitor.
From the residual activities, values of the Gini coefficient and hit rate were calculated for each individual compound. The Gini coefficient is a single-value metric whose value for a specific inhibitor depends on the number and origin of the PKs in the panel, but also on concentration of the tested compound [70]. Hit rate is the number of kinases inhibited by over 50%.

PIM2 = PIM2 (Homo sapiens, UniProt Q9P1W9); experiment: Binding/displacement assay with FA or TGLI readout; design: made in house; conditions: mean ± SEM, N = 2
Method: The affinities of the compounds toward the PIM family PKs were determined in a binding/displacement assay with measurement of fluorescence anisotropy (FA) and time-gated luminescence intensity (TGLI) (Table 2). For the initial assessment of the selectivity of compounds, PKAcα was used as the reference basophilic kinase [10].
Optical FA measurement modules for 5-TAMRA-labeled compounds (ex. 540(20) nm, em. 590(20) nm and 590(20) nm), for Cy5-labeled compounds (ex. 590(50) nm, em. 675(50) nm and 675(50) nm), and optical TGLI measurement modules for ARC-1451 (ex. 330(60) nm, em. 590(50) nm), for ARC-1188 (ex. 330(60) nm, em. 675(50) nm) were used for assays with PHERAstar microplate reader (BMG Labtech; Ortenberg, Germany). TGLI measurements were performed with a delay time of 50 μs and integration of the signal for 150 μs. In each measurement, emission from 200 flashes of excitation radiation was collected. The measurement solutions (20 µL volumes) were prepared in black 384-well low-binding surface microtiter plates (Corning #4514; Kennebunk, ME, USA) and incubated for 20 min at 30 °C before the measurements. The assay buffer contained HEPES hemisodium salt (pH 7.4, 50 mM), NaCl (150 mM), dithiothreitol (5 mM), bovine serum albumin (0.5 mg/mL), and Tween-20 (0.005%). […] 5.04 (GraphPad Software, Inc.) was used for data analysis with FA [32] or TGLI [33] readouts.

PKAcα = target: T1, PKAcα (Homo sapiens, UniProt P17612); experiment: Binding/displacement assay with FA or TGLI readout
T1 construct: purchased Biaffin GmbH & Co KG (Kassel, Germany)
Method: The affinities of the compounds toward the PIM family PKs were determined in a binding/displacement assay with measurement of fluorescence anisotropy (FA) and time-gated luminescence intensity (TGLI) (Table 2). For the initial assessment of the selectivity of compounds, PKAcα was used as the reference basophilic kinase.
Optical FA measurement modules for 5-TAMRA-labeled compounds (ex. 540(20) nm, em. 590(20) nm and 590(20) nm), for Cy5-labeled compounds (ex. 590(50) nm, em. 675(50) nm and 675(50) nm), and optical TGLI measurement modules for ARC-1451 (ex. 330(60) nm, em. 590(50) nm), for ARC-1188 (ex. 330(60) nm, em. 675(50) nm) were used for assays with PHERAstar microplate reader (BMG Labtech; Ortenberg, Germany). TGLI measurements were performed with a delay time of 50 μs and integration of the signal for 150 μs. In each measurement, emission from 200 flashes of excitation radiation was collected. The measurement solutions (20 µL volumes) were prepared in black 384-well low-binding surface microtiter plates (Corning #4514; Kennebunk, ME, USA) and incubated for 20 min at 30 °C before the measurements. The assay buffer contained HEPES hemisodium salt (pH 7.4, 50 mM), NaCl (150 mM), dithiothreitol (5 mM), bovine serum albumin (0.5 mg/mL), and Tween-20 (0.005%). GraphPad Prism v. 5.04 (GraphPad Software, Inc.) was used for data analysis with FA [32] or TGLI [33] readouts. Representative titration curves can be found in Supplementary Figure S7.

VEG-FR = target: T2, VEG-FR (Homo sapiens, UniProt P17948); experiment: Kinase profiling (radiometric filter-binding); assay type: biochemical; conditions: 1 µM inhibitor, read-out: Residual activity, %
T2 sequence (P17948 784-1338 limits assumed): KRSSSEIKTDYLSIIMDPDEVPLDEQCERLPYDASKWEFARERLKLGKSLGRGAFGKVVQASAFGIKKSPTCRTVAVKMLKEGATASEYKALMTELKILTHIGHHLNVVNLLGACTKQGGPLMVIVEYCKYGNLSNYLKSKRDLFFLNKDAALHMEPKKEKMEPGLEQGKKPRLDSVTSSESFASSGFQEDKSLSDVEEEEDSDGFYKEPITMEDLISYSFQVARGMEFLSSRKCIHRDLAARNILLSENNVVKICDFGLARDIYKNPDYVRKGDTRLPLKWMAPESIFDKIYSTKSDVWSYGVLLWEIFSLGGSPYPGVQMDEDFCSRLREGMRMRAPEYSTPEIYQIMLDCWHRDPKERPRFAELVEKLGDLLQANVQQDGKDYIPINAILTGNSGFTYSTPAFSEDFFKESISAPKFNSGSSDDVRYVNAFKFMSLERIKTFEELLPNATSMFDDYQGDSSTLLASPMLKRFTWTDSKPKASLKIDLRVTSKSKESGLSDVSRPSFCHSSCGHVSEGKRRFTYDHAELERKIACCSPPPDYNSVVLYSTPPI
Summary of the method: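 Activity remaining (% of control without inhibitor) at 1 µM final compound; human kinases, ATP ≤ KM, radiometric filter binding.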

PIM family = experiment: Kinase profiling (radiometric filter-binding), PIM family; assay type: biochemical, human; conditions: 1 µM compound
Method: as §1

U2OS cells = experiment: Cellular uptake of fluorescent probes, live-cell microscopy; assay type: cell-based, human; conditions: 1–5 μM, 10–60 min
Method: For studies of the general internalization properties of ARCs, the cells were seeded at the density of 12,000–25,000 cells per well onto an Ibidi μ-plate (96-well; Ibidi GmbH, Planegg, Germany). After 24 h incubation in growth medium, the cells were treated for 10 min, 30 min, or 1 h with dilutions of compounds 6, 7, 8, or ARC-2090 (5 μM, 2.5 μM, or 1 μM final concentration) in the phenol red-free DMEM/Ham’s F12 medium supplemented with 2% ccFBS and 2 mM glutamine. Next, cells were washed twice with PBS, and imaging medium (MEMO + Supplement A 1:100) was applied subsequently. Cells were imaged with Cytation 5 wide-field microscope (BioTek; Winooski, VT, USA) using 20× air objective and the following settings: for Cy5, 623 nm LED (intensity: 2) and Cy5 filter cube (685 nm) with 104 ms integration time and detector gain value of 2; for TAMRA, 523 nm LED (intensity: 7) and RFP filter cube (593 nm) with 252 ms integration time and detector gain value of 16; for bright-field, white LED with intensity 6, 186 ms integration time and detector gain value of 15. Four independent experiments were performed.

[1] = TGLI or FA readout, mean ± SEM, N = 2, read-out: KD, nM (PKAcα)

Sequence of PIM2 (Q9P1W9 whole entry): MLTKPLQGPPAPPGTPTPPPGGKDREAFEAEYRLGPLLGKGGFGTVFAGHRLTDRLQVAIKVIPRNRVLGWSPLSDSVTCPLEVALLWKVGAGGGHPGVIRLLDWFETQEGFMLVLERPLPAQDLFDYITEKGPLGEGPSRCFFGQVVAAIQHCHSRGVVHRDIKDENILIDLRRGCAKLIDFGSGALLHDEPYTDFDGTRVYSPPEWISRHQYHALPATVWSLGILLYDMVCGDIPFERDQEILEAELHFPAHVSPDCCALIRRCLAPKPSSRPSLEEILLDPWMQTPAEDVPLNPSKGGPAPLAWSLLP

| SMILES | residual activity of other basophilic kinases in the panel (panel of 140 PKs) | Kd (PIM2) [nM] | Kd (PKAcα; [1]) [nM] | remaining activity at 1 µM (VEG-FR) [%] | Kd (PKAcα; read-out: KD toward PKAcα) [nM] | residual activity, PIM family, all isoforms (PIM family) | ability to cross the plasma membrane / internalization (U2OS cells) |
| --- | --- | --- | --- | --- | --- | --- | --- |
| N=C(N)NCCC[C@@H](NC(=O)CNC(=O)[C@@H](CCCNC(=N)N)NC(=O)[C@@H](CCCNC(=N)N)NC(=O)CCCCCCCNCc1nc2c(sc3cc(Br)cnc32)c(=O)[nH]1)C(=O)N[C@H](CCCCN)C(N)=O [Compound 1, BPTP-Aoc-(D-Arg)2-Gly-D-Arg-D-Lys-NH2] | above 81% | 64 ± 8 | 2250 ± 411 | 110 ± 9 | – | – | – |
| N=C(N)NCCC[C@@H](NC(=O)CCCCCNCc1nc2c(sc3cc(Br)cnc32)c(=O)[nH]1)C(=O)N[C@H](CCCNC(=N)N)C(=O)N[C@H](CCCNC(=N)N)C(=O)N[C@H](CCCNC(=N)N)C(=O)N[C@H](CCCNC(=N)N)C(=O)N[C@H](CCCNC(=N)N)C(=O)N[C@H](CCCCN)C(N)=O [ARC-3126, BPTP-Ahx-(D-Arg)6-D-Lys-NH2] (X3-[dR][dR][dR][dR][dR][dR][dK]-NH2) | – | 2.9 ± 0.5 | > 18500 | 85 | > 18000 | – | – |
| N=C(N)NCCC[C@@H](NC(=O)CCCCCNC(=O)Cn1cnc2c(I)c(I)c(I)c(I)c21)C(=O)N[C@H](CCCNC(=N)N)C(=O)N[C@H](CCCNC(=N)N)C(=O)N[C@H](CCCNC(=N)N)C(=O)N[C@H](CCCNC(=N)N)C(=O)N[C@H](CCCNC(=N)N)C(=O)N[C@H](CCCCN)C(N)=O [ARC-3125, TIBI-CH2-C(=O)-Ahx-(D-Arg)6-D-Lys-NH2] | – | – | – | 95 ± 41 | – | – | – |
| N=C(N)NCCC[C@@H](NC(=O)CNC(=O)[C@@H](CCCNC(=N)N)NC(=O)[C@@H](CCCNC(=N)N)NC(=O)CCCCCCCNCc1nc2c(sc3ccc(Br)cc32)c(=O)[nH]1)C(=O)N[C@H](CCCCN)C(N)=O [Compound 2, BBTP-Aoc-(D-Arg)2-Gly-D-Arg-D-Lys-NH2] | – | 3.8 ± 0.2 | 853 ± 28 | 96 ± 3 | – | 4–7% | – |
| CN(C)c1ccc2c(c1)Oc1cc(N(C)C)ccc1C21OC(=O)c2cc(C(=O)NCCCC[C@@H](NC(=O)[C@@H](CCCNC(=N)N)NC(=O)CNC(=O)[C@@H](CCCNC(=N)N)NC(=O)[C@@H](CCCNC(=N)N)NC(=O)CCCCc3cn(Cc4nc5c(sc6ccc(Br)cc65)c(=O)[nH]4)nn3)C(N)=O)ccc21 [Compound 8, BBTP-Tap-(D-Arg)2-Gly-D-Arg-[D-Lys(5-TAMRA)]-NH2] | – | 157 ± 39 | > 1020 | – | – | – | much lower internalization efficiency |
| N=C(N)NCCC[C@@H](NC(=O)CNC(=O)[C@@H](CCCNC(=N)N)NC(=O)[C@@H](CCCNC(=N)N)NC(=O)Cn1cc(CNCc2nc3c(sc4ccc(Br)cc43)c(=O)[nH]2)nn1)C(=O)N[C@H](CCCCN)C(N)=O [Compound 3, BBTP-Amt-(D-Arg)2-Gly-D-Arg-D-Lys-NH2] | – | 9.9 ± 0.8 | 1500 ± 266 | 90 ± 5 | – | – | – |
